Patent US11767303B2, “Compounds and methods for inhibiting viral replication and methods of treating and preventing flaviviral infections” (priority 2020, dated 2023)
“Also recorded” adds a separate entry of the source.

System: ZIKV strain PRVABC59 or ZIKV-Venus
Test: ZIKV infection of 3D mini-brain organoids
Format: cell-based, Zika virus
Details: 1.5 μM
Description: Culturing of human iPSCs. Human iPSC F11350.1 culture was maintained in feed-free conditions using mTeSR1 medium (StemCell Technologies #85851) with 5× supplement (StemCell Technologies #85852). Cells were maintained on six-well plates coated with human embryonic stem cell-qualified Matrigel at a 1:60 dilution (Corning Catalog #354277) and passaged with ReLeSR (StemCell Technologies #05872). Cortical 3D organoids were generated based on the protocol described by Yoon et al. Yoon et al., “Reliability of Human Cortical Organoid Generation,” Nat. Methods. […] Briefly, iPSCs were dissociated with accutase (ThermoFisher #A1110501) and then plated at a density of 3×10^6 cells per well in AggreWell 800 24-well plate (StemCell Technologies #34811) in Essential 8™ medium (ThermoFisher #A1517001) supplemented with 10 μM rock inhibitor (Tocris #Y27632). The plate was centrifuged at 100×g for 3 min and incubated at 37° C. overnight. […]
To evaluate if JMX0207 protects organoids from ZIKV infections, a full-length infectious ZIKV clone expressing Venus fluorescent protein (ZIKV-Venus) was first generated. […] ZIKV infection was quantified by a plaque forming unit (PFU) assay at 5 dpi and by fluorescence imaging at 7 dpi, respectively. […]

O=C(Nc1ccc([N+](=O)[O-])cc1Cl)c1cccc([N+](=O)[O-])c1O [JMX0207, N-(2-Chloro-4-nitrophenyl)-2-hydroxy-3-nitrobenzamide]
ZIKV infection of 3D organoid (MOI 1, imaging/immunostaining): completely abolished ZIKV infection; also recorded: nearly completely protected the organoids from ZIKV infection
ZIKV production from 3D organoids (PFU assay at 5 dpi): ZIKV production was also significantly inhibited
